The record followed here is ChEMBL document CHEMBL3784975 (Bioorg Med Chem Lett, 2016).

In one series the test system is HeLa. Put plainly: Cytotoxicity against human HeLa cells after 24 hrs by [3H]-thymidine incorporation assay. The series is classed as functional, cell-based. A general note: Incorporation of labelled thymidine or its analogues reports DNA synthesis.
A short description of series [1]: Cytotoxicity against human CLL cells after 24 hrs by annexin-V/PI staining based flow cytometry. Format: functional, cell-based. (A flow cytometer gives signals particle by particle.)
Series [2] can be described thus: Cytotoxicity against human CLL cells after 24 hrs by annexin-V/PI staining based flow cytometry in presence of fetal bovine serum. The series is classed as functional, cell-based.
Series [3] is described as follows: Cytotoxicity against human T cells assessed as cell viability after 24 hrs by annexin V/propidium iodide staining based flow cytometric analysis.
Series [4] is described as follows: Plasma protein binding in human by liquid chromatography-mass spectrometric analysis. Format: ADME, cell-free.
Series [5] in a line: Cytotoxicity against human B cells assessed as cell viability after 24 hrs by annexin V/propidium iodide staining based flow cytometric analysis.
A further series concerns Plasma. As to the kind of experiment: Metabolic stability in human plasma assessed as drug recovery. Format: ADME, cell-free.
Series [6] is described as follows: Cytotoxicity against human SJSA1 cells after 48 hrs by crystal violet staining based assay. The series is classed as functional, cell-based. To be noted: SJSA-1, 48 h.
For the next series, the system named is A-431. Put plainly: Cytotoxicity against human A431 cells after 48 hrs by crystal violet staining based assay. Format: functional, cell-based. The conditions noted are these: A-431, 48 h.
A short description of series [7]: Cytotoxicity against human CLL cells after 24 hrs by annexin-V/PI staining based flow cytometry in presence of human plasma protein. Format: functional, cell-based.
A short description of series [8]: Cytotoxicity against human […] cells after 48 hrs by crystal violet staining based assay. The series is classed as functional, cell-based.
Series [9] in a line: Cytotoxicity against human IGROV cells after 48 hrs by crystal violet staining based assay. The series is classed as functional, cell-based.
Series [10] in a line: Cytotoxicity against human A3 cells after 48 hrs by crystal violet staining based assay. The series is classed as functional, cell-based. The conditions noted are these: A3, 48 h.
Series [11] in a line: Half life of compound at pH 5. The series is classed as physicochemical.
The nature of series [12]: Half life of compound in water at 25 deg C. Format: physicochemical.

Usually IC50 stands for the concentration that gives 50% inhibition. Regarding `CN1C(=O)N[C@H]2[C@@H]3NC(=O)c4ccc(Br)n4[C@@H]3C[C@]21OCCCc1cn(CCCC(=O)NCc2ccccc2)nn1`, the IC50 with HeLa is more than 20000 nM; in series [1], more than 10000 nM.
Take `CN1C(=O)N[C@H]2[C@@H]3NC(=O)c4cc(-c5ccccc5)c(-c5ccccc5)n4[C@@H]3C[C@]21O`: the IC50 in the series on HeLa was more than 20000 nM; in series [1], more than 10000 nM.
Consider `CN1C(=O)N[C@H]2[C@@H]3NC(=O)c4c(Br)c(Br)c(Br)n4[C@@H]3C[C@]21O`, for which the figures for the concentration for half-maximal inhibition (IC50) (in the series with HeLa; in series [1]) were more than 20000 nM and more than 10000 nM, respectively.
The corresponding values for `Cc1cc2n(c1Br)[C@@H]1C[C@]3(O)[C@@H](NC(=O)N3C)[C@@H]1NC2=O` are 4530 nM and 7120 nM.
`CN1C(=O)N[C@H]2[C@@H]3NC(=O)c4cc(Cl)c(Br)n4[C@@H]3C[C@]21O`: the IC50 amounted to 2650 nM in series [2]; 560 nM in [6]; 340 nM in the series with A-431; 2820 nM in [1]; 2820 nM in [7]; 540 nM in series [8]. Moreover, the IC50 turned out to be 260 nM in series [9] and 470 nM in [10]. In addition, the Activity result in series [3] and in [5] was “Toxic” in each case. Further, the PPB in series [4] is listed as 46.5%. The Drug recovery in the series on Plasma is 102.1%.
For the compound `CN1C(=O)N[C@H]2[C@@H]3NC(=O)c4cc(C#Cc5ccccc5)c(Br)n4[C@@H]3C[C@]21O`, the IC50 is more than 20000 nM with HeLa and more than 10000 nM in series [1].
Consider `CN1C(=O)N[C@H]2[C@@H]3NC(=O)c4ccc(Br)n4[C@@H]3C[C@]21O` [AGELASTATIN A], for which the 50% inhibitory concentration (IC50) in series [2] came out at 930 nM; in the series with HeLa, 84 nM; in [6], 440 nM; with A-431, 460 nM; in [1], 710 nM; in [7] it was 710 nM. For the same compound, the IC50 was found to be 320 nM in series [8], 170 nM in series [9] and 380 nM in [10]. The Activity result in [3] and in series [5] was “Toxic” in each case.
With `Cc1c(Br)c(Br)n2c1C(=O)N[C@@H]1[C@H]2C[C@]2(O)[C@H]1NC(=O)N2C`, the IC50 with HeLa was more than 20000 nM.
`CN1C(=O)N[C@H]2[C@@H]3NC(=O)c4ccc(Br)n4[C@@H]3C[C@]21N`: the IC50 was 17000 nM with HeLa and more than 30000 nM in series [1]. Also, the t1/2 in series [11] came to 170 h.
`CN1C(=O)N[C@H]2[C@@H]3NC(=O)c4cc(-c5ccccc5)c(Br)n4[C@@H]3C[C@]21O`: the IC50 in the series with HeLa was more than 20000 nM; in series [1], more than 10000 nM.
The corresponding values for `C#CCCCO[C@@]12C[C@@H]3[C@@H](NC(=O)c4ccc(Br)n43)[C@@H]1NC(=O)N2C` are more than 20000 nM and more than 10000 nM.
As to `CC(=O)c1cc2n(c1Br)[C@@H]1C[C@]3(O)[C@@H](NC(=O)N3C)[C@@H]1NC2=O`, the IC50 in the series with HeLa was more than 20000 nM; in [1], more than 10000 nM.
For `Cc1c(C)c2n(c1Br)[C@@H]1C[C@]3(O)[C@@H](NC(=O)N3C)[C@@H]1NC2=O`, in the series with HeLa, the IC50 is more than 20000 nM.
On the same count and under the same terms, the same measure for `CN1C(=O)c2ccc(Br)n2[C@@H]2C[C@]3(O)[C@@H](NC(=O)N3C)[C@@H]21` (racemic): more than 20000 nM.
Turning to `CN1C(=O)N[C@H]2[C@@H]3NC(=O)c4cc(Br)c(Br)n4[C@@H]3C[C@]21O`, the IC50 in the series on HeLa is 7850 nM; in series [6], more than 1000 nM; in the series with A-431, more than 1000 nM; in [1], more than 30000 nM; in series [8], more than 1000 nM; in [9], more than 1000 nM. The compound further had an IC50 in series [10] of more than 1000 nM.
As a reminder, the half-life is the time in which the quantity being followed falls by half. Low readings indicate rapid decline, high ones slow decline. Regarding `CC(=O)CCO[C@@]12C[C@@H]3[C@@H](NC(=O)c4ccc(Br)n43)[C@@H]1NC(=O)N2C`, the values for the IC50 (in the series on HeLa; in series [1]) were 1720 nM and 5740 nM, respectively. Further, in [12], the half-life is 16 h.
In turn, `CN1C(=O)N[C@H]2[C@@H]3NC(=O)c4cc(I)c(Br)n4[C@@H]3C[C@]21O` registered an IC50 in the series on HeLa of more than 20000 nM.
The compound `Cc1ccn2c1C(=O)N[C@@H]1[C@H]2C[C@]2(O)[C@H]1NC(=O)N2C` returned an IC50 in the series with HeLa of more than 20000 nM.
As for `Cc1ccc2n1[C@@H]1C[C@]3(O)[C@@H](NC(=O)N3C)[C@@H]1NC2=O`, the IC50 is more than 20000 nM in the series on HeLa; more than 1000 nM in [6]; more than 1000 nM in the series on A-431; 9770 nM in [1]; 280 nM in series [8]; 310 nM in [9]. Also, the IC50 in series [10] was more than 1000 nM.
